According to US11858905B1, “Cathepsin L inhibitors” (priority 2023, dated 2024):
Like-named read-outs stand apart in the source and are kept apart here.

How the values were obtained:
RSV = RSV infected mice; cited from earlier work
SARS-CoV-2 PsVs = experiment: microbe, parasite or virus in culture; format: cell-based; conditions: for activity at 0.5 µM / activity at 5 µM: Severe acute respiratory syndrome coronavirus 2, Vero C1008, 24 h; for activity at 0.5 µM: read-out: % Infection rate at 500 nM; for activity at 5 µM: read-out: % Infection rate at 5 uM
human CatL = human CatL (Homo sapiens (Human), UniProt P07711); experiment: Human Cathepsin L (CatL) enzymatic assay; format: biochemical
Chain of human CatL (P07711 whole entry, looked up): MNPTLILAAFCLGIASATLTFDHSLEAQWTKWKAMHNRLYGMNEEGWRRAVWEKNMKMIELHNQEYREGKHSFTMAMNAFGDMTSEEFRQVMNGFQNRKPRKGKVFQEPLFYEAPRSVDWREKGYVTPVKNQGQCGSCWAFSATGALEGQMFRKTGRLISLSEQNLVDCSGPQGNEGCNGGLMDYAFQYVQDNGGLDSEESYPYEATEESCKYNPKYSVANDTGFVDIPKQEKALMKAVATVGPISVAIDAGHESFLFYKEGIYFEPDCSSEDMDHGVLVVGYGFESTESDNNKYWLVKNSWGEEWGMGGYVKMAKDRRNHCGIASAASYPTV
Method: Human Cathepsin L (CatL) Enzymatic Assay
60 μL of the compounds were added to 384-well dilution plate. The compound solution was diluted for 1:3 in succession in DMSO for each column for 10 pts. 0.05 μL diluted compound solution was added in each row to 384 assay plates (Corning 4514) using Echo (LABCYTE 655), each column containing 2 replicates. 5 μL working solution of human CatL enzyme (Abcam #ab81780) was added to 384-well assay plate, centrifuge 1000 rpm for 1 min. The mixture was incubated at […] for 15 min, then add 5 μL working solution of CatL substrate (Genscript #C7360HB140_5) to initiate the reaction (CatL: 0.05 nM, Substrate: 500 nM). Incubate at […] for 30 min. Reading Ex370 nm and Em460 nm fluorescence signals with BMG CLARIO Star Plusaucu. Percent inhibition for each compound was calculated and IC50 (half maximal inhibitory concentration) was fitted from non-linear regression by XLfit 5.5.0.

[1] = CatL 0.05 nM, substrate 500 nM, pH 5.5, read-out: Enzymatic inhibition IC50

SMILES | airway hyperresponsiveness (RSV) | viral clearance (RSV) | protection of cells from pseudovirus infection at 500 nM (SARS-CoV-2 PsVs) | activity at 0.5 µM (SARS-CoV-2 PsVs) | activity at 5 µM (SARS-CoV-2 PsVs) | IC50 (human CatL; [1]) | IC50 (human CatL; summary of Table 2, read-out: IC50 for inhibiting CatL)
CC(C)C[C@H](NC(=O)[C@H]1O[C@@H]1C(=O)O)C(=O)NCCCCN=C(N)N [Compound E64, E64] | prevented airway hyperresponsiveness | enhanced viral clearance |  |  |  |  | 
NC(=O)c1ncn([C@@H]2O[C@H](CO)[C@@H](O)[C@H]2O)n1 [ribavirin] | prevented airway hyperresponsiveness | enhanced viral clearance |  |  |  |  | 
COCCN1CC=C(c2ccc3nc(C[C@H](NC(=O)c4cc(C5(C)CC5)nn4C4CC4)C(=O)NC4(C#N)CC4)oc3c2)CC1 [Compound 46, (2S)—N-(1-cyanocyclopropyl)-2-{[2-cyclopropyl-5-(1-methylcyclopropyl)pyrazol-3-yl]formamido}-3-{6-[1-(2-methoxyethyl)-3,6-dihydro-2H-pyridin-4-yl]-1,3-benzoxazol-2-yl}propanamide] |  |  | nearly full protection | 7% | 0.08% | 1 nM | 
CC(C)(C)c1cc(C(=O)N[C@@H](Cc2nc3ccc(Br)cc3o2)C(=O)NC2(C#N)CC2)n(C2CC2)n1 [Compound 33, (S)—N-(3-(6-bromobenzo[d]oxazol-2-yl)-1-((1-cyanocyclopropyl)amino)-1-oxopropan-2-yl)-3-(tert-butyl)-1-cyclopropyl-1H-pyrazole-5-carboxamide] |  |  |  | 39% | 5.9% | 2.9 nM | 
COCCN1CC=C(c2ccc3nc(C[C@H](NC(=O)c4cc(C(C)(C)C)nn4C4CC4)C(=O)NCC#N)oc3c2)CC1 [Compound 45, (2S)-2-[(5-tert-butyl-2-cyclopropylpyrazol-3-yl)formamido]-N-(cyanomethyl)-3-{6-[1-(2-methoxyethyl)-3,6-dihydro-2H-pyridin-4-yl]-1,3-benzoxazol-2-yl}propanamide] |  |  | nearly full protection | 7% | 0.02% | 2.5 nM | 
Cc1cc(-c2ccc3nc(C[C@H](NC(=O)c4cc(C5(C)CC5)nn4C4CC4)C(=O)NCC#N)oc3c2)ccn1 [Compound 35, (S)—N-(1-((cyanomethyl)amino)-3-(6-(2-methylpyridin-4-yl)benzo[d]oxazol-2-yl)-1-oxopropan-2-yl)-1-cyclopropyl-3-(1-methylcyclopropyl)-1H-pyrazole-5-carboxamide] |  |  |  | 40% | 3.1% | 1.1 nM | 
CC(C)(C)c1cc(C(=O)N[C@@H](Cc2nc3ccc(-c4ccc(N)nc4)cc3o2)C(=O)NC2(C#N)CC2)n(C2CC2)n1 [Compound 34, (S)—N-(3-(6-(6-aminopyridin-3-yl)benzo[d]oxazol-2-yl)-1-((1-cyanocyclopropyl)amino)-1-oxopropan-2-yl)-3-(tert-butyl)-1-cyclopropyl-1H-pyrazole-5-carboxamide] |  |  |  | 41% | 0.9% | 0.6 nM | 
N#CC1(NC(=O)[C@H](Cc2nc3ccccc3o2)NC(=O)c2cn(C3CC3)nc2C(F)F)CC1 [Compound 19, (S)—N-(3-(benzo[d]oxazol-2-yl)-1-((1-cyanocyclopropyl)amino)-1-oxopropan-2-yl)-1-cyclopropyl-3-(difluoromethyl)-1 H-pyrazole-4-carboxamide] |  |  |  | 101% | 77.3% | 44.6 nM | 
N#CC1(NC(=O)[C@H](Cc2nc3ccccc3o2)NC(=O)c2cn(C3CC3)nc2C(F)(F)F)CC1 [Compound 18, (S)—N-(3-(benzo[d]oxazol-2-yl)-1-((1-cyanocyclopropyl)amino)-1-oxopropan-2-yl)-1-cyclopropyl-3-(trifluoromethyl)-1H-pyrazole-4-carboxamide] |  |  |  | 92% | 72.6% | 50.7 nM | 
N#CC1(NC(=O)[C@H](Cc2nc3ccccc3o2)NC(=O)c2cccc(Cl)c2)CC1 [Compound 1, (S)—N-(3-(benzo[d]oxazol-2-yl)-1-((1-cyanocyclopropyl)amino)-1-oxopropan-2-yl)-3-chlorobenzamide] |  |  |  | 69% | 39% | 14.1 nM | 
N#CC1(NC(=O)[C@H](Cc2nc3cccc(Cl)c3o2)NC(=O)c2cccc(Cl)c2)CC1 [Compound 6, (S)-3-chloro-N-(3-(7-chlorobenzo[d]oxazol-2-yl)-1-((1-cyanocyclopropyl)amino)-1-oxopropan-2-yl)benzamide] |  |  |  | 75% | 20% | 7 nM | < 10 nM
